Each compound was assayed against one or more of HDAC-4, HDAC-5, HDAC-6, HDAC-7, HDAC-8, HDAC-9, HDAC-10 and HDAC-11 (assay: Inhibition of histone deacetylase enzymatic activity (summary statement over isoforms)). Conditions: Table 3, selected examples; HDAC isoform not given.
Format: biochemical
Protocol: The following protocol is used to assay the compounds of the invention.
The mixture is pre-incubated for 5 minutes at room temperature. The reaction is started by bringing the temperature to 37° C. and adding 15 μL substrate. Total reaction volume is 50 μL.
A 30 mM stock of Boc-Lys(trifluoroacetyl)-AMC substrate is prepared in DMSO. […] Reaction is started by adding 18 μL Boc-Lys(trifluoroacetyl)-AMC substrate and incubating at 37° C. for 20-30 minutes. The reaction is stopped by adding 50 μL trypsin (1 mg/mL) and a known HDAC inhibitor.

Compound	IC50
2-(3-(benzo[d][1,3]dioxol-5-ylmethylbenzo[d][1,3]dioxol-5-ylmethoxy)phenyl)-N-hydroxy-2-phenylacetamide [Compound 3-7]	< 1000 nM
2-(4-(benzo[d][1,3]dioxol-5-ylmethylbenzo[d][1,3]dioxol-5-ylmethoxy)phenyl)-N-hydroxy-2-phenylacetamide [Compound 3-11]	< 1000 nM
O=C(NO)C(Oc1ccccc1)c1ccccc1 (centres unmarked) [Compound 1-2, N-hydroxy-2-phenoxy-2-phenylacetamide]	< 1000 nM
O=C(NO)C(c1ccc([N+](=O)[O-])cc1)c1ccc([N+](=O)[O-])cc1 [Compound 1-3, N-hydroxy-2,2-bis(4-nitrophenyl)acetamide]	< 1000 nM
O=C(NO)C(c1ccccc1)N1CCCCC1 (centres unmarked) [Compound 1-4, N-hydroxy-2-phenyl-2-(piperidin-1-yl)acetamide]	< 1000 nM
O=C(CN(Cc1ccccc1)S(=O)(=O)c1ccccc1)NO [Compound 1-5, 2-(N-benzylphenylsulfonamido)-N-hydroxyacetamide]	1000 to 15000 nM
O=C(CC(c1ccccc1)c1ccccc1)NO [Compound 1-6, N-hydroxy-3,3-diphenylpropanamide]	< 1000 nM
O=C(NO)C(c1ccc2c(c1)CCO2)c1ccc2c(c1)CCO2 [Compound 1-8, 2,2-bis(2,3-dihydrobenzofuran-5-yl)-N-hydroxyacetamide]	< 1000 nM
O=C(NO)C(c1ccccc1)N1CCC(Cc2ccccc2)CC1 (centres unmarked) [Compound 1-9, 2-(4-benzylpiperidin-1-yl)-N-hydroxy-2-phenylacetamide]	< 1000 nM
O=C(NO)C(c1ccccc1)C1CCCCC1 (centres unmarked) [Compound 1-10, 2-cyclohexyl-N-hydroxy-2-phenylacetamide]	< 1000 nM
O=C(NO)C(Cc1ccccc1)c1ccccc1 (centres unmarked) [Compound 1-11, N-hydroxy-2,3-diphenylpropanamide]	1000 to 15000 nM
O=C(NO)C(Sc1ccccc1)c1ccccc1 (centres unmarked) [Compound 1-12, N-hydroxy-2-phenyl-2-(phenylthio)acetamide]	< 1000 nM
O=C(NO)C(c1ccccc1)n1cccc1 (centres unmarked) [Compound 1-13, N-hydroxy-2-phenyl-2-(1H-pyrrol-1-yl)acetamide]	1000 to 15000 nM
CC(C(=O)NO)(c1ccccc1)c1ccccc1 [Compound 1-14, N-hydroxy-2,2-diphenylpropanamide]	< 1000 nM
O=C(NO)C(c1ccc(Cl)cc1)c1ccc(Cl)cc1 [Compound 1-15, 2,2-bis(4-chlorophenyl)-N-hydroxyacetamide]	< 1000 nM
O=C(NO)C(c1ccccc1)N1CCN(c2ccccc2)CC1 (centres unmarked) [Compound 1-16, N-hydroxy-2-phenyl-2-(4-phenylpiperazin-1-yl)acetamide]	< 1000 nM
O=C(NO)C(c1ccccc1)N1CCN(Cc2ccccc2)CC1 (centres unmarked) [Compound 1-17, 2-(4-benzylpiperazin-1-yl)-N-hydroxy-2-phenylacetamide]	1000 to 15000 nM
O=C(NO)C(c1ccc(F)cc1)c1ccc(F)cc1 [Compound 1-18, 2,2-bis(4-fluorophenyl)-N-hydroxyacetamide]	< 1000 nM
CCN(CC)c1ccc(C(C(=O)NO)c2ccccc2)cc1 (centres unmarked) [Compound 1-19, 2-(4-(diethylamino)phenyl)-N-hydroxy-2-phenylacetamide]	< 1000 nM
O=C(NO)C(c1ccccc1)c1nc2ccc(-c3cccs3)cc2[nH]1 (centres unmarked) [Compound 1-20, N-hydroxy-2-phenyl-2-(6-(thiophen-2-yl)-1H-benzo[d]imidazol-2-yl)acetamide]	< 1000 nM
O=C(NO)/C(=C/c1ccccc1)c1ccccc1 [Compound 1-21, (E)-N-hydroxy-2,3-diphenylacrylamide]	< 1000 nM
O=C(NO)C(c1ccccc1)N1Cc2ccccc2C1 (centres unmarked) [Compound 1-22, N-hydroxy-2-(isoindolin-2-yl)-2-phenylacetamide]	1000 to 15000 nM
O=C(NO)C(c1cccs1)c1cccs1 [Compound 1-23, N-hydroxy-2,2-di(thiophen-2-yl)acetamide]	1000 to 15000 nM
O=C(NO)C(Sc1nc2ccccc2s1)c1ccccc1 (centres unmarked) [Compound 1-24, 2-(benzo[d]thiazol-2-ylthio)-N-hydroxy-2-phenylacetamide]	< 1000 nM
O=C(NO)C(c1ccccc1)c1nc2cc(Cl)c(F)cc2[nH]1 (centres unmarked) [Compound 1-25, 2-(5-chloro-6-fluoro-1H-benzo[d]imidazol-2-yl)-N-hydroxy-2-phenylacetamide]	1000 to 15000 nM
O=C(NO)C(c1ccccc1)n1cc(-c2ccccc2)nn1 (centres unmarked) [Compound 1-26, N-hydroxy-2-phenyl-2-(4-phenyl-1H-1,2,3-triazol-1-yl)acetamide]	< 1000 nM
O=C(NO)C(c1ccccc1)n1cc(CCc2ccccc2)nn1 (centres unmarked) [Compound 1-27, N-hydroxy-2-(4-phenethyl-1H-1,2,3-triazol-1-yl)-2-phenylacetamide]	1000 to 15000 nM

Compound	IC50
O=C(NO)C(O)(c1ccccc1)c1ccccc1 [Compound 1-28, N,2-dihydroxy-2,2-diphenylacetamide]	< 1000 nM
CN(C)c1ccc(C(C(=O)NO)c2ccccc2)cc1 (centres unmarked) [Compound 1-29, 2-(4-(dimethylamino)phenyl)-N-hydroxy-2-phenylacetamide]	< 1000 nM
O=C(NO)C(c1ccccc1)N1CCC(Cc2ccc(F)cc2)CC1 (centres unmarked) [Compound 1-30, 2-(4-(4-fluorobenzyl)piperidin-1-yl)-N-hydroxy-2-phenylacetamide]	< 1000 nM
O=C(NO)C(c1ccccc1)N1CCC(CCc2ccccc2)CC1 (centres unmarked) [Compound 1-31, N-hydroxy-2-(4-phenethylpiperidin-1-yl)-2-phenylacetamide]	< 1000 nM
O=C(NO)C(c1ccccc1)c1ccc(-c2ccccc2)cc1 (centres unmarked) [Compound 1-32, 2-(biphenyl-4-yl)-N-hydroxy-2-phenylacetamide]	< 1000 nM
O=C(NO)C(C(=O)Nc1cccc(C(F)(F)F)c1)c1ccccc1 (centres unmarked) [Compound 1-33, N1-hydroxy-2-phenyl-N3-(3-(trifluoromethyl)phenyl)malonamide]	< 1000 nM
O=C(NO)C(c1ccccc1)N1CCC(c2c[nH]c3ccccc23)CC1 (centres unmarked) [Compound 1-34, 2-(4-(1H-indol-3-yl)piperidin-1-yl)-N-hydroxy-2-phenylacetamide]	< 1000 nM
O=C(NO)C(c1ccccc1)n1cc(Cc2ccccc2)nn1 (centres unmarked) [Compound 1-35, 2-(4-benzyl-1H-1,2,3-triazol-1-yl)-N-hydroxy-2-phenylacetamide]	< 1000 nM
O=C(NO)C(c1ccccc1)N1CCN(c2ncccn2)CC1 (centres unmarked) [Compound 1-36, N-hydroxy-2-phenyl-2-(4-(pyrimidin-2-yl)piperazin-1-yl)acetamide]	< 1000 nM
O=C(NO)C(Sc1nccc(-c2ccc(Cl)cc2)n1)c1ccccc1 (centres unmarked) [Compound 1-37, 2-(4-(4-chlorophenyl)pyrimidin-2-ylthio)-N-hydroxy-2-phenylacetamide]	< 1000 nM
COc1ccccc1-c1nnc(C(C(=O)NO)c2ccccc2)s1 (centres unmarked) [Compound 1-38, N-hydroxy-2-(5-(2-methoxyphenyl)-1,3,4-thiadiazol-2-yl)-2-phenylacetamide]	< 1000 nM
O=C(NO)C(c1ccccc1)c1nnc(-c2ccc(Br)cc2)s1 (centres unmarked) [Compound 1-39, 2-(5-(4-bromophenyl)-1,3,4-thiadiazol-2-yl)-N-hydroxy-2-phenylacetamide]	< 1000 nM
CN(C)c1ccc(C(C(=O)NO)c2ccc(-c3ccccc3)cc2)cc1 (centres unmarked) [Compound 1-40, 2-(biphenyl-4-yl)-2-(4-(dimethylamino)phenyl)-N-hydroxyacetamide]	< 1000 nM
O=C(NO)C(c1ccccc1)c1ccc(N2CCCC2)cc1 (centres unmarked) [Compound 1-41, N-hydroxy-2-phenyl-2-(4-(pyrrolidin-1-yl)phenyl)acetamide]	< 1000 nM
O=C(NO)C(Sc1nc(-c2ccccc2)c(-c2ccccc2)[nH]1)c1ccccc1 (centres unmarked) [Compound 1-42, 2-(4,5-diphenyl-1H-imidazol-2-ylthio)-N-hydroxy-2-phenylacetamide]	1000 to 15000 nM
O=C(NO)C(c1ccccc1)N1CCC(Oc2ccccc2)CC1 (centres unmarked) [Compound 1-43, N-hydroxy-2-(4-phenoxypiperidin-1-yl)-2-phenylacetamide]	< 1000 nM
O=C(NO)C(c1ccccc1)N1CCC(c2ccccc2)CC1 (centres unmarked) [Compound 1-44, N-hydroxy-2-phenyl-2-(4-phenylpiperidin-1-yl)acetamide]	< 1000 nM
O=C(NO)C(c1ccccc1)c1ccc(-c2ccc(F)cc2)cc1 (centres unmarked) [Compound 1-45, 2-(4′-fluorobiphenyl-4-yl)-N-hydroxy-2-phenylacetamide]	< 1000 nM
O=C(NO)C(Sc1ccc(-c2ccccc2)cc1)c1ccccc1 (centres unmarked) [Compound 1-46, 2-(biphenyl-4-ylthio)-N-hydroxy-2-phenylacetamide]	< 1000 nM
O=CN(O)C(c1ccccc1)c1ccccc1 [Compound 1-47, N-benzhydryl-N-hydroxyformamide]	< 1000 nM
CCCCOc1cccc(C(C(=O)NO)c2ccccc2)c1 (centres unmarked) [Compound 2-5, 2-(3-butoxyphenyl)-N-hydroxy-2-phenylacetamide]	1000 to 15000 nM
O=C(NO)C(c1ccccc1)c1cccc(OCc2ccccc2)c1 (centres unmarked) [Compound 2-6, 2-(3-(benzyloxy)phenyl)-N-hydroxy-2-phenylacetamide]	< 1000 nM
O=C(NO)C(c1ccccc1)c1cccc(OCCc2ccccc2)c1 (centres unmarked) [Compound 2-7, N-hydroxy-2-(3-phenethoxyphenyl)-2-phenylacetamide]	1000 to 15000 nM
O=C(NO)C(c1ccccc1)c1cccc(OCc2ccc(F)cc2)c1 (centres unmarked) [Compound 2-8, 2-(3-(4-fluorobenzyloxy)phenyl)-N-hydroxy-2-phenylacetamide]	< 1000 nM
CCCCOc1ccc(C(C(=O)NO)c2ccccc2)cc1 (centres unmarked) [Compound 2-10, 2-(4-butoxyphenyl)-N-hydroxy-2-phenylacetamide]	1000 to 15000 nM
O=C(NO)C(c1ccccc1)c1ccc(OCC(=O)N2CCOCC2)cc1 (centres unmarked) [Compound 2-11, N-hydroxy-2-(4-(2-morpholino-2-oxoethoxy)phenyl)-2-phenylacetamide]	< 1000 nM
